Consider one compound from paper PMC9268243, “Metabolic Behaviors of Aconitum Alkaloids in Different Concentrations of Aconiti Lateralis Radix Praeparata and Effects of Aconitine in Healthy Human and Long QT Syndrome Cardiomyocytes” (Molecules, 2022).

Structures are written as SMILES. Like-named read-outs stand apart in the source and are kept apart here.

Data set [1] has as its system rats. As to conditions: cited from earlier work.
Data set [2] has as its system normal hiPSC-CMs. Nature of the data set: Ca2+ imaging of calcium transients, normal hiPSC-CMs. It counts as cell-based, human. As to conditions: compared with the control group. The method, then:
(§1) Dissociated day 30–33 post-differentiation hiPSC-CMs (healthy and LQT specific patient) were reseeded Matrigel-coated plate in HELP4004 (HELP) and were treated with 5 μM Fluo-3 AM and 0.02% Pluronic (Life Technologies) in DMEM/F12 (Gibco) for 60 min at 37 °C. Cells were washed with DMEM/F12 without fluorochrome solution afterwards for 30 min, replaced the solution with Tyrode’s solution. Ca^2+ imaging was conducted using Olympus IX71 confocal microscope (Olympus IX71, Tokyo, Japan) and analyzed using Olympus imaging software. Ca^2+ spontaneous transients were obtained using a single cell line scan mode at 37 °C.
(§2) Isoproterenol, nifedipine, and AC were purchased from Sigma-Aldrich, which were resolved in DMSO (Sigma-Aldrich, D2650). Drug compounds final concentration were AC (0.05, 0.5,5 μM), nifedipine (1 μM), isoproterenol (3 μM), respectively. Dilutions were prepared within 60 min of treatment. All the compound solutions were subjected to regular 10 min ultrasound and oscillations to ensure that compounds were completely dissolved. Equal amounts of DMSO (0.1%) were used as the vehicle controls.

Data set [3] concerns myocardial cells. Also on record: method as in our previous work. As to conditions: low doses 5–20 nmol/L, ref our previous work; cited from earlier work.
Data set [4] relates to LQT syndrome hiPSC-CMs. Nature of the data set: Ca2+ imaging of calcium transients, LQT syndrome hiPSC-CMs. It counts as cell-based, human. As to conditions: cardiomyocytes of LQTS, 5 μM. Here is the method: as §1, §2
The test system of data set [5] is LQTS hiPSC-CMs. As to the kind of experiment: Whole-cell current-clamp action potential recording, LQTS hiPSC-CMs. It is filed as cell-based, human. As to conditions: LQTS hiPSC-CMs, 0.05, 0.5 and 5 μM, 1 Hz stimulation. From the text:
(§3) Standard patch-clamp techniques were used to record action potentials, and L-type calcium currents. Composition of intracellular fluid and extracellular fluid were shown in Table 7 and Table 8, respectively. The signal was amplified using an HEKA EPC-10 patch-clamp amplifier (HEKA, Electronics, Ludwigshafen, Germany) and low-pass filtered at 5 kHz. Patch pipettes were fabricated from glass capillaries using a Sutter P-97 microelectrode puller (Novato, CA, USA) and the tips were heat polished with a microforge (NARISHIGE MF-900) to gain a resistance of 2–5 MΩ. Data acquisition was achieved using HEKA Patchmaster (V2x73.2). Data analysis and fit were performed using Clamfit and Graphpad Prism 6.0. The experiment was conducted at 37 °C. One cell can test one or more drugs, or multiple concentrations of the same drug but needs to be rinsed with extracellular fluid between each test. Nifedipine (Sigma) was used as a positive control to ensure cell quality. External solution containing 0.1% DMSO was applied as vehicle to establish the baseline. Recording was done at a temperature-controlled room of 35–37 degrees Celsius.
Isoproterenol, nifedipine, and AC were purchased from Sigma-Aldrich, which were resolved in DMSO (Sigma-Aldrich, D2650). Drug compounds final concentration were AC (0.05, 0.5,5 μM), nifedipine (1 μM), isoproterenol (3 μM), respectively. […]

Data set [6] has as its target T1, L-type calcium current (ICa,L) in LQTS hiPSC-CMs (Homo sapiens, UniProt Q13936).
T1 construct: endogenous in cells; host or cells: LQTS patient-derived hiPSC cardiomyocytes
As to the kind of experiment: Patch-clamp L-type calcium current, LQTS hiPSC-CMs. It counts as cell-based.
Excerpt: as §3, §2
On the technique in general: Patch clamp records ionic current or voltage across a cell membrane.

Data set [7] relates to normal hiPSC-CMs. As to the kind of experiment: Impedance beating recordings (cell index, beat rate, amplitude), normal hiPSC-CMs. It counts as cell-based, human. Here is the method:
HiPSCs derived from healthy controls (Cat: NC20010002; Lot.HJ210577NC22), or patients (Cat. NC20300002; Lot. CP210578NC04) diagnosed with LQT syndrome was maintained in HELP4004 (HELP, Nanjing, China) medium on Matrigel-coated (BD Bio science, San Jose, CA, USA) plates at 37 °C; with 5% CO2 (v/v).
The cardiomyocytes were seeded on Nanion CardioExcyte 96 Sensor Plates (NSP-96, Nanion Technologies, Munich, Germany) after 0.1% gelatin coating for 1 h. The initial volume was 200 μL per well and contained approximately […]. After seeding, the NSP-96 and CardioExcyte 96 were returned to the incubator. All cells were replaced with fresh medium 200 μL per well every 48 h and tested after 168 h. Cellular index, beat rate, base impedance and beat amplitude were monitored in this experiment.
as §2

Data set [8] relates to CYP3A4. As to conditions: in vivo; cited from earlier work.

As a reminder, the IC50 is the concentration at which inhibition is half-maximal.

T1 sequence (Q13936 whole entry): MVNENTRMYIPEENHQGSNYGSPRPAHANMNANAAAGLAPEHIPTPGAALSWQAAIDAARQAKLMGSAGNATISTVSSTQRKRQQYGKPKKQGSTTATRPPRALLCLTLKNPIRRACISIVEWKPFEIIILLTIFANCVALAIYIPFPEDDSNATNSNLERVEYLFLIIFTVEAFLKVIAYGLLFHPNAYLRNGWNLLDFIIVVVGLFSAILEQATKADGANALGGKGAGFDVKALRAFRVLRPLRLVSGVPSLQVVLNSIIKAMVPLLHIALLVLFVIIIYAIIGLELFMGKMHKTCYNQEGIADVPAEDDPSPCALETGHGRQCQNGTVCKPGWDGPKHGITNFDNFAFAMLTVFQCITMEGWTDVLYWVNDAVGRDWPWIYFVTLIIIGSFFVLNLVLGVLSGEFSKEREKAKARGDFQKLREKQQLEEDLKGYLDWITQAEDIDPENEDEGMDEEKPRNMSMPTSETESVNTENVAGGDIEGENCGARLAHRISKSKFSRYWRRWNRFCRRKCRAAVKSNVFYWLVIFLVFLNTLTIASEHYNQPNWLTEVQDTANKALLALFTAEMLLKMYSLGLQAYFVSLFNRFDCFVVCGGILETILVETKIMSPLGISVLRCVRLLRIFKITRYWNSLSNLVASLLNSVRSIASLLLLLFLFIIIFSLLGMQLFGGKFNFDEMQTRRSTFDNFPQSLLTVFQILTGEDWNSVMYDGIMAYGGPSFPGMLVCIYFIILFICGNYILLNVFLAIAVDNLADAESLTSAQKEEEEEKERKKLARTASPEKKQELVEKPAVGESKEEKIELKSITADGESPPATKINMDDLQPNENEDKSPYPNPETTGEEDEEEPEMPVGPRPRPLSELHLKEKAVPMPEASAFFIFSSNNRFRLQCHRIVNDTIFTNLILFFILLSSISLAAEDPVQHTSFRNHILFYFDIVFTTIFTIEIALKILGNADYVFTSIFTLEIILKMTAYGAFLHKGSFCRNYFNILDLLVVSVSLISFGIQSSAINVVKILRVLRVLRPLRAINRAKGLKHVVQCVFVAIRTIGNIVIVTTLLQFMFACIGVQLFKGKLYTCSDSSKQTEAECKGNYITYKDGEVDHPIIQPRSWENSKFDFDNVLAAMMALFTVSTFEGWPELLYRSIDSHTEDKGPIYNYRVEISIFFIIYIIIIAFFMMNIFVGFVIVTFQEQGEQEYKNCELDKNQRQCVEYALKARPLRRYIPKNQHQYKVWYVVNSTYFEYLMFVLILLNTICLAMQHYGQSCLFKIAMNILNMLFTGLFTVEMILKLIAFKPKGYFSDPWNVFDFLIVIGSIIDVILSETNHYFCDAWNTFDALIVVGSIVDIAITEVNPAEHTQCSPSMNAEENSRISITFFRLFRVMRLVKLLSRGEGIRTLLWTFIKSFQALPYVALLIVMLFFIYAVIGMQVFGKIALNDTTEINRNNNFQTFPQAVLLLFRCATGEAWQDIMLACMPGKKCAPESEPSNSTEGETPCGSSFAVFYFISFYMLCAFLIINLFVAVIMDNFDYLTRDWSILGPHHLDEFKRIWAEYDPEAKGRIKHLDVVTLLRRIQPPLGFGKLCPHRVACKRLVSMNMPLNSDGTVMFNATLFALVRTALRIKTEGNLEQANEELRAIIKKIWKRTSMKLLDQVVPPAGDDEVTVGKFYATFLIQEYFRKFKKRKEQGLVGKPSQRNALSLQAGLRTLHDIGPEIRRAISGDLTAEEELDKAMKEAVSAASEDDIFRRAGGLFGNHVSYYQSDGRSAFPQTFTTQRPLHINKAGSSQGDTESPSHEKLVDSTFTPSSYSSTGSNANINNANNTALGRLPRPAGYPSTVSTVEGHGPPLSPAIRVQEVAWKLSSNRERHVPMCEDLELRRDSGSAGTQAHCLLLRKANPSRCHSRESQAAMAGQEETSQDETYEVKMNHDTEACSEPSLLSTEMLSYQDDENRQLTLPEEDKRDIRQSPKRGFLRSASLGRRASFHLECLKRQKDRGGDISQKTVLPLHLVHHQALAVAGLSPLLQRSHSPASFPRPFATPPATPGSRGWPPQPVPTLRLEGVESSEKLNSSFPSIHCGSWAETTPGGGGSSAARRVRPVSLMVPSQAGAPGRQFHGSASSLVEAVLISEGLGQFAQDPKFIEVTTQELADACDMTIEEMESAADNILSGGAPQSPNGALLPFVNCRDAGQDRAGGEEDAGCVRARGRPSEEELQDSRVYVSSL
T1 sequence (Q08289 whole entry partner): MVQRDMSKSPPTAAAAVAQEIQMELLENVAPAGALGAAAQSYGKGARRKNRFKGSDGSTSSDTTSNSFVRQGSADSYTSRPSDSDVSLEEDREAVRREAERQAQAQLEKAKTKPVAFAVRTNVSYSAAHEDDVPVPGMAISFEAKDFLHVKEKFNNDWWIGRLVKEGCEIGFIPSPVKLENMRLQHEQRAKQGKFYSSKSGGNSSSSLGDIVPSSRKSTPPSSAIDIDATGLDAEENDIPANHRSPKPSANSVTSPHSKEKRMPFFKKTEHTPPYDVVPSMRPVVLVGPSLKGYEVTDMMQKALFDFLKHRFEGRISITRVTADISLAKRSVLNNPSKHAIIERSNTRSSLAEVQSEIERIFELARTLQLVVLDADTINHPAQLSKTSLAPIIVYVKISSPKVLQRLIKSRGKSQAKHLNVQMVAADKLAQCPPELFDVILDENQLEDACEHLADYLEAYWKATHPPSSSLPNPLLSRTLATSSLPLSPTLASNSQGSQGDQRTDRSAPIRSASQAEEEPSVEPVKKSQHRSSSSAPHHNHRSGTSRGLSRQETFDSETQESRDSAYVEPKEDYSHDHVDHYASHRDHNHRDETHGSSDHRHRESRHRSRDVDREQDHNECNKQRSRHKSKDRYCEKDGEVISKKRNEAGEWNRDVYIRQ
T1 sequence (P54289 25-956 partner limits assumed): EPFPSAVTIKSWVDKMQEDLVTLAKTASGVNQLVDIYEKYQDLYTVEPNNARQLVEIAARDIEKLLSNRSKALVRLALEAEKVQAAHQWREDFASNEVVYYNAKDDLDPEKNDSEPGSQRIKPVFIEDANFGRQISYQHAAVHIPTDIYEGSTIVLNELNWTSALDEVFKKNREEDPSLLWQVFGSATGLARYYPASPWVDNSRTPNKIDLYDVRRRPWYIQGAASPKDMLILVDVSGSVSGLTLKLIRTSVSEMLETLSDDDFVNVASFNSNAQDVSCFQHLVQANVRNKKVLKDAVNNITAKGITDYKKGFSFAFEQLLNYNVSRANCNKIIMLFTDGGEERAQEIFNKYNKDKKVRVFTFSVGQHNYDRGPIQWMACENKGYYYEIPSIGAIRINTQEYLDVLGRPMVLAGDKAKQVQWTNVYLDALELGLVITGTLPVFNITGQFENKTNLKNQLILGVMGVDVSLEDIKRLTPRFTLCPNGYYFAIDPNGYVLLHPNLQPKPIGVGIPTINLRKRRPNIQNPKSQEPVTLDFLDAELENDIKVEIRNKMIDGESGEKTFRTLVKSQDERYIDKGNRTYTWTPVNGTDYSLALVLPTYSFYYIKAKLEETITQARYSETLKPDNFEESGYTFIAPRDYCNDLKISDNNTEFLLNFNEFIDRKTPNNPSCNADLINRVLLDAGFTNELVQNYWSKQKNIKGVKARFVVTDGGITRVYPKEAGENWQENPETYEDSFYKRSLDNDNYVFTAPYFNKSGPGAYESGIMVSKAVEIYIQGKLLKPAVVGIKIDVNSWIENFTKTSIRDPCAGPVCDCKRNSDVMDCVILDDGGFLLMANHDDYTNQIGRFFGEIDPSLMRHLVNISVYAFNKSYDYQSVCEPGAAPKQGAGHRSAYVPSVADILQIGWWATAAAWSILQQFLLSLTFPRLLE
T1 sequence (P54289 957-1103 partner limits assumed): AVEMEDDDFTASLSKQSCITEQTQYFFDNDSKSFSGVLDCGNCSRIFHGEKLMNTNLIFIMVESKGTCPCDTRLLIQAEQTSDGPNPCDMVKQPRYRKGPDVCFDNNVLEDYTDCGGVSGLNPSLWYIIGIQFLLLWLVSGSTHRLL

Turning to `CCN1C[C@]2(COC)[C@H](O)C[C@H](OC)[C@@]34[C@@H]5C[C@@]6(O)[C@H](OC(=O)c7ccccc7)[C@@H]5[C@@](OC(C)=O)([C@@H]([C@H](OC)[C@H]23)[C@@H]14)[C@@H](O)[C@@H]6OC` [AC, aconitine], the toxic cardiovascular effects result in data set [1] (oral 0.4 mg/kg) is “arrhythmia, lower heart rate, and blood pressure, were observed”. Further, the toxic cardiovascular effects result in data set [1] (oral low-dose 0.1 mg/kg) was “not found”. Moreover, the “amplitude and frequency of calcium transient” value in data set [2] was “no significant effect”. The mitochondrial energy metabolism result in data set [3] is on record as “could improve mitochondrial energy metabolism”. Besides, the “frequency of calcium transient” value in data set [4] is given as “significantly increase”. In addition, in data set [5], the APD50 result is “concentration-dependently shortened”. Further, the “peak value of L-type calcium current” value in data set [6] (LQT group, 0.05–5 μM) is reported as “significantly decreased”. The concentration for half-maximal inhibition (IC50) in data set [6] (LQT hiPSC-CMs, tested 0.05–5 μM, no concentration dependence, read-out: IC50, inhibition of L-type calcium current) is over 5 µM. Further, the IC50 in data set [6] (LQTS hiPSC-CMs, estimated beyond tested range 0.05–5 μM, read-out: IC50 (eIC50) on ICa,L) is 27.2 µM. In data set [7] (normal hiPSC-CMs), the amplitude result is “concentration-dependently decreased” and the cell index result is reported as “no significant effect”. Besides, in data set [7] (normal hiPSC-CMs, 0.5 μM), the cell beat rate entry was “faster after 12 h”, the cell contractility entry is given as “decreased cell contractility” and the cell frequency result was “increased cell frequency”. The cell contractility result in data set [7] (normal hiPSC-CMs, 5 μM, very weak within 6 h after treatment) is given as “significantly reduced”. In addition, the cardiomyocyte death result in data set [7] (normal hiPSC-CMs, 0.05, 0.5 and 5 μM, 48 h observation period) was “None of the three concentrations (0.05, 0.5, and 5 μM) AC caused cardiomyocyte death”. The contraction force result in data set [7] (normal hiPSC-CMs, versus control group, concentration not given) is “slightly lower”. In data set [8], the “main CYP 450 subtype for alkaloid metabolism” value is given as “CYP3A4”.
